Reference: article PMC12670405, “Second-Generation AURKA-Targeting PROTACs: Structural Optimization toward in Vivo Degradation in Neuroblastoma” (Journal of Medicinal Chemistry, 2025)
Read-outs that look alike come from different tables or passages of the source. One block for each compound: values may come before it.

How the values were obtained:
NGP = assay: IncuCyte live-cell imaging, antiproliferative effect; type: cell-based; conditions: Homo sapiens, 72 h
Text: Human neuroblastoma cell lines NGP, IMR-32, SJNB-8, SK-N-BE(2)-C, SJNB-1, SK-N-SH and SK-N-AS, as well as benign immortalized cell lines RPE and HEK293T were either bought commercially or obtained through research laboratories. […] Screening for mycoplasma contamination occurred routinely on the cells. Human neuroblastoma cell lines SH-SY5Y_shABCB1 & SH-SY5Y_shNTC were generated by transduction with pLKO.1-ABCB1_TRCN0000059683 shRNA (Sigma MISSION SHCLND) or pLKO.1-puro NT shRNA (Sigma MISSION SHC002) vectors respectively (Supplementary Table S6), packaged using Lenti-X293T (Clontech). Transduced cells were selected with 2 μg/mL puromycin. These cells were cultured in DMEM 4.5 g/L D-Glucose, L-Glutamine and 110 mg/L Sodium Pyruvate (Gibco, #11995065) supplemented with 10% fetal bovine serum, 1× Antibiotic-Antimycotic solution (Sigma-Aldrich, #A5955) and 1× MEM nonessential amino acids (Sigma-Aldrich, #M7145). Incubation of all cells occurred at 37 °C and 5% CO2.
Neuroblastoma cells were seeded in 384-well plates at different densities ranging from 1200 to 5000 cells/well and allowed to adhere overnight. RPE and HEK293T were seeded at 200 and 600 cells/well, respectively. Compound treatment was performed using the D300e Digital Dispenser (Tecan) in duplicate or triplicate and cell confluency was monitored over time using the IncuCyte Live-cell imaging system (Sartorius). […] Mean normalized confluences were calculated from 3 individual experiments.
All dose–response curves were computed on GraphPad Prism using the Variable Slope (four parameters) equation. Absolute half-maximal degradation (DC50), growth inhibitory (GI50) and enzymatic inhibitory (IC50) concentrations, as well as inhibition constants (Ki) were derived from dose–response curves via interpolation. Statistical tests were performed on GraphPad Prism and detailed in the figure legends. Unless otherwise stated, “n” in the figure legends indicates the number of independent experiments conducted at different times.

Plasma stability assay = type: in vitro ADME, CD-1 mouse; conditions: for half-life at 1 μM: read-out: plasma t1/2
Method: (§1) Plasma and metabolic stability tests were performed by Eurofins Discovery. For the plasma stability assay, test compounds were incubated in CD-1 mouse plasma for 0, 0.5, 1, 1.5, and 2 h at 37 °C at a concentration of 1 μM. For the metabolic stability assay, test compounds were incubated at 37 °C in either (1) CD-1 mouse liver microsomes (MLM) (0.1 mg/mL) at a concentration of 0.1 μM for 0, 15, 30, 45, and 60 min or (2) CD-1 mouse hepatocytes (MH) (0.7 million viable cells/mL) at a concentration of 1 μM for 0, 0.5, 1, 1.5, and 2 h. At the respective time points, acetonitrile was added to the incubation mixture followed by centrifugation. Samples were analyzed by HPLC-MS/MS and peak areas were recorded for each analyte. Compound stability, expressed as the percentage of parent compound remaining, was calculated by comparing the peak area of the compound at each time point relative to that of the 0h time point. Percentage compound remaining is plotted as a function of time as a logarithmic curve. Half-life (t 1/2) is estimated from the slope of the initial linear range of the curve, assuming first-order kinetics. […] Both plasma and metabolic assay experiments were performed once with 2 replicate samples each.

[1] = Metabolic stability in mouse liver microsomes (MLM); type: in vitro ADME, CD-1 mouse; conditions: CD-1
Method: as §1

AURKA = molecular target: T1, AURKA (Homo sapiens, UniProt O14965); assay: AURKA degradation, Simple Western; type: cell-based; set-up: Representative Western blot showing levels of endogenous proteins MDR1, MYCN, AURKA, and CRBN in untreated cell lines; endogenous in cells; host or cells: NGP, IMR-32, SJNB-8, SK-N-BE(2)-C, SK-N-SH, SK-N-AS, SJNB-1, RPE, HEK293T; conditions: for pDC50: AURKA degradation; for DC50: read-out: AURKA DC50;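 as to AURKA Degradation 24h @1000nM: measured in NGP neuroblastoma cells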;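 as to AURKA Degradation 24h @100nM: measured in NGP neuroblastoma cells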
T1 sequence (O14965 1-403): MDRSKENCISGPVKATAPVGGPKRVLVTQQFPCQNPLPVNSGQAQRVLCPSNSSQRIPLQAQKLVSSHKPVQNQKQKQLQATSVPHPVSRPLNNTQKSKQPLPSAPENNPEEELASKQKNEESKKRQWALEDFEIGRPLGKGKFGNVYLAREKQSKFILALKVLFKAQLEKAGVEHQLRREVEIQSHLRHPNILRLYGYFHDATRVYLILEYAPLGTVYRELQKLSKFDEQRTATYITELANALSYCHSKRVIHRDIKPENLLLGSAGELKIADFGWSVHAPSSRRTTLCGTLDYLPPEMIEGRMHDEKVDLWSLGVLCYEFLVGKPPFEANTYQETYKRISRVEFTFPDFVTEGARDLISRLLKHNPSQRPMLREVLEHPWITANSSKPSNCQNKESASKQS
Method: Cells were seeded in T-25 flasks at different densities ranging from 1 to 2 million cells per flask and allowed to adhere for 1–2 days. In experiments involving compound treatment, this was done by medium replacement containing the compound(s) of interest in their corresponding concentrations. In competition binding experiments, cells were first pretreated with an excess of MK-5108, thalidomide or MG-132 for 1 h by shaking gently at room temperature prior to addition of SK4454 or SK5527. All samples were normalized to contain the same percentage of DMSO as the negative DMSO controls. Cells were harvested on ice at their respective time points by scraping, washed with ice-cold PBS to collect remaining cells, and centrifuged (2500 rpm, 4 °C). A second washing and centrifugation step was performed prior to collection of the final cell pellets which were then snap-frozen in liquid nitrogen and kept frozen at −80 °C until further processing. Lysis of cell pellets occurred in cold RIPA buffer (0.5% w/v Sodium Deoxycholate, 150 mM NaCl, 50 mM TrisHCl pH 7.5, 0.1% w/v SDS, 1% w/v NP-40) supplemented with protease and phosphatase inhibitors (Roche, #11836145001, #04906845001) by rotating gently at 4 °C for 1h, followed by a centrifugation step for 10 min (10,000 rpm, 4 °C). The supernatant was collected and concentrations of the obtained protein lysates were measured using the Pierce BCA Protein Assay Kit (Thermo Fisher Scientific, #23227).
Simple Western analyses were performed with the Wes instrument (Bio-Techne) using the 12–230 kDa Wes Separation module and the EZ standard pack reagent 1 (Biotechne, #SM-W001, #PS-ST01EZ-8) following the manufacturer’s protocol. Protein lysates were loaded at 0.8 μg/μL under denaturing conditions (0.2 μg/μL for MYCN detection). Chemiluminescence peaks were generated by the Compass Software (Bio-Techne) and the area under the peaks calculated using the Gaussian fit method. Per lane, quantified data were always normalized to that of the loading control (Vinculin) prior to calculating fold changes relative to the negative DMSO control. Mean fold changes are calculated from 3 individual experiments. A list of the primary and secondary antibodies used can be found in the Supporting Information (Supplementary Table S7).
Graphs were generated using GraphPad Prism Software (version 10.1.2) or RStudio (R-4.3.2). All dose–response curves were computed on GraphPad Prism using the Variable Slope (four parameters) equation. Absolute half-maximal degradation (DC50), growth inhibitory (GI50) and enzymatic inhibitory (IC50) concentrations, as well as inhibition constants (Ki) were derived from dose–response curves via interpolation. Statistical tests were performed on GraphPad Prism and detailed in the figure legends. Unless otherwise stated, “n” in the figure legends indicates the number of independent experiments conducted at different times.

[2] = Metabolic stability in mouse hepatocytes (MH); type: in vitro ADME, CD-1 mouse; conditions: CD-1
Method: as §1

Compound: O=C1CCC(N2C(=O)c3ccc(N4CCN(CCNC(=O)[C@]5(Cc6cccc(Nc7nccs7)n6)CC[C@@H](Oc6cccc(Cl)c6F)CC5)CC4)cc3C2=O)C(=O)N1 (some centres unmarked) [PROTAC 4]
- GI50 (NGP; read-out: GI50 72h, 72h): 44 nM
- GI50 (NGP; read-out: pGI50 (converted)): 44.7 nM
- half-life at 1 μM (Plasma stability assay; CD-1 mouse plasma, 1 μM, 37 °C): > 2 h
- plasma t1/2 (Plasma stability assay; plasma): > 2 h
- microsomal CLint at 0.1 μM [1]: 656 µL/min/mg
- AURKA Degradation 24h @100nM (AURKA): 85
- AURKA Degradation 24h @1000nM (AURKA): 93
- pDC50 (AURKA): 8,32
- Dmax (AURKA; NGP, 24 h treatment): 97%
- DC50 (AURKA; NGP, 24 h treatment): 5 nM
- DC50 (AURKA): 4.8 nM

Compound: O=C1CCC(Nc2ccc(N3CCN(C(=O)CNC(=O)[C@]4(Cc5cccc(Nc6nccs6)n5)CC[C@@H](Oc5cccc(Cl)c5F)CC4)CC3)cc2)C(=O)N1 (some centres unmarked) [PROTAC 14]
- GI50 (NGP; read-out: GI50 72h, 72h): 46 nM
- GI50 (NGP; read-out: pGI50 (converted)): 45.7 nM
- half-life at 1 μM (Plasma stability assay; CD-1 mouse plasma, 1 μM, 37 °C): > 2 h
- plasma t1/2 (Plasma stability assay; plasma): > 2 h
- microsomal CLint at 0.1 μM [1]: 739 µL/min/mg
- AURKA Degradation 24h @100nM (AURKA): 61
- AURKA Degradation 24h @1000nM (AURKA): 73
- pDC50 (AURKA): 7,36
- AURKA degradation activity (in words) (AURKA; NGP, 24 h treatment): significantly stronger degradation activity
- Dmax (AURKA; NGP, 24 h treatment): 76%
- DC50 (AURKA): 43.8 nM

Compound: O=C1CCN(Cc2ccc(C3CCN(C4CN(C(=O)[C@]5(Cc6cccc(Nc7nccs7)n6)CC[C@@H](Oc6cccc(Cl)c6F)CC5)C4)CC3)nc2)C(=O)N1 [PROTAC 22]
- GI50 (NGP; read-out: GI50 72h, 72h): 46 nM
- GI50 (NGP; read-out: pGI50 (converted)): 46.8 nM
- half-life at 1 μM (Plasma stability assay; CD-1, mouse, plasma): > 2 h
- microsomal CLint at 0.1 μM [1]: 693 µL/min/mg
- hepatocyte CLint at 1 μM [2]: < 4.1 µL/min/1e6 cells
- AURKA Degradation 24h @100nM (AURKA): 86
- AURKA Degradation 24h @1000nM (AURKA): 87

The next lines start with results.

- half-life at 1 μM (Plasma stability assay; CD-1, mouse, plasma): > 2 h
- microsomal CLint at 0.1 μM [1]: 1480 µL/min/mg
- AURKA Degradation 24h @100nM (AURKA): 72
- AURKA Degradation 24h @1000nM (AURKA): 66
Compound: O=C1CCC(N2C(=O)c3cccc(N4CCN(CCOCCOCCNC(=O)[C@]5(Cc6cccc(Nc7nccs7)n6)CC[C@@H](Oc6cccc(Cl)c6F)CC5)CC4)c3C2=O)C(=O)N1 (some centres unmarked) [PROTAC 1]
- GI50 (NGP; read-out: GI50 72h, 72h): 63 nM
- GI50 (NGP; read-out: pGI50 (converted)): 63.1 nM

- half-life at 1 μM (Plasma stability assay; CD-1 mouse plasma, 1 μM, 37 °C): 1.32 h
- microsomal CLint at 0.1 μM [1]: 456 µL/min/mg
- AURKA Degradation 24h @100nM (AURKA): 80
- AURKA Degradation 24h @1000nM (AURKA): 77
- pDC50 (AURKA): 8,06
- Dmax (AURKA; NGP, 24 h treatment): 81%
- DC50 (AURKA): 8.7 nM
Compound: O=C1CCC(N2C(=O)c3cccc(OCCOCCOCCN4CCN(C(=O)[C@]5(Cc6cccc(Nc7nccs7)n6)CC[C@@H](Oc6cccc(Cl)c6F)CC5)CC4)c3C2=O)C(=O)N1 (some centres unmarked) [PROTAC 3]
- GI50 (NGP; read-out: GI50 72h, 72h): 42 nM
- GI50 (NGP; read-out: pGI50 (converted)): 41.7 nM
